Patent US10065941B2, “Aminotriazine derivative and pharmaceutical composition comprising the same” (Shionogi & Co., Ltd., priority 2013, dated 2018)

The compounds below were run against human P2X3 receptor (Homo sapiens (Human), UniProt P56373) (assay: Evaluation of human P2X3 receptor inhibitory activity (Test Example 1)). Conditions: C6BU-1 cell transfected with human P2X3 receptor gene, FLIPR 384.
Sequence of human P2X3 receptor (P56373 whole entry): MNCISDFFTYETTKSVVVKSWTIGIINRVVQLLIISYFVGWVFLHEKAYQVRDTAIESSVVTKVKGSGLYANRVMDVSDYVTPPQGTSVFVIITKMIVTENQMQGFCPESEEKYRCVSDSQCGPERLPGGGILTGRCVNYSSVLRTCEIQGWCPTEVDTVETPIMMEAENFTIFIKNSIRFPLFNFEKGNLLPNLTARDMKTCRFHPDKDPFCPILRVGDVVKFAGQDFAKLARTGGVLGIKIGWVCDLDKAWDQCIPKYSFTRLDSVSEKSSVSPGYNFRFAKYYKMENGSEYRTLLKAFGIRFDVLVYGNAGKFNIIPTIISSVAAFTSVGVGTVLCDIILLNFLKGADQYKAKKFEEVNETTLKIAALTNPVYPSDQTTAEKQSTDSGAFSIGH
Type: cell-based
How it was run: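 FLIPR calcium read-out: signal taken as peak fluorescence after ATP addition divided by starting fluorescence, and IC50 calculated from it. Compound added 5 min before 150 nM ATP solution (pre-dispense stock) to Fluo-3-AM-loaded C6BU-1 cells stably transfected with human P2X3; HEPES buffer pH 7.5 with probenecid.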
COC(=O)C(C)(C)Cn1c(=O)[nH]/c(=N\c2ccc(N3CCCCC3)c(F)c2)n(Cc2ccc(Cl)cc2)c1=O [Compound R-141] was tested, and the IC50 was 47 nM. With Cc1cc(/N=c2\[nH]c(=O)n(C[C@H](C)C(=O)O)c(=O)n2Cc2ccc(Cl)cc2)ccc1N1CCCCC1 [Compound R-142] the IC50 was 69 nM. Compound Cc1cc(/N=c2\[nH]c(=O)n(CC(C)(C)C(=O)O)c(=O)n2Cc2ccc(Cl)cc2)ccc1N1CCCCC1 [Compound R-143] has an IC50 of 97 nM. Compound C[C@@H](Cn1c(=O)[nH]/c(=N\c2ccc(Oc3nc4ccccc4o3)cc2)n(Cc2ccc(Cl)cc2)c1=O)C(=O)O [Compound R-144] has an IC50 of 5 nM. For C[C@@H](Cn1c(=O)[nH]/c(=N\c2ccc(Oc3nc(C(F)(F)F)ns3)cc2)n(Cc2ccc(Cl)cc2)c1=O)C(=O)O [Compound R-145], the IC50 was 11 nM. For C[C@@H](Cn1c(=O)[nH]/c(=N\c2ccc(N3CCCCC3)c(F)c2)n(Cc2ccc(Cl)cc2)c1=O)C(=O)O [Compound R-146], the IC50 was 33 nM. With CC(C)(Cn1c(=O)[nH]/c(=N\c2ccc(N3CCCCC3)c(F)c2)n(Cc2ccc(Cl)cc2)c1=O)C(=O)O [Compound R-147] the IC50 was 51 nM. COC(=O)C(C)(C)Cn1c(=O)[nH]/c(=N\c2ccc(Oc3cccnn3)cc2)n(Cc2ccc(Cl)cc2)c1=O [Compound R-148] gave an IC50 of 5 nM. Work on COC(=O)C(C)(C)Cn1c(=O)[nH]/c(=N\c2ccc(Oc3ncc(C)s3)cc2)n(Cc2ccc(Cl)cc2)c1=O [Compound R-149] yielded an IC50 of 12 nM. COC(=O)[C@H](C)[C@H](C)n1c(=O)[nH]/c(=N\c2ccc(Oc3ccnc(Cl)c3)cc2)n(Cc2ccc(Cl)cc2)c1=O [Compound R-150] showed an IC50 of 18 nM. For CC(C)(Cn1c(=O)[nH]/c(=N\c2ccc(Oc3cccnn3)cc2)n(Cc2ccc(Cl)cc2)c1=O)C(=O)O [Compound R-151], the IC50 was 11 nM. With COC(=O)[C@@H](C)Cn1c(=O)[nH]/c(=N\c2ccc(Oc3ccc(CO)nc3)cc2)n(Cc2ccc(Cl)cc2)c1=O [Compound R-152] the IC50 was 5 nM. Cc1cnc(Oc2ccc(/N=c3\[nH]c(=O)n(CC(C)(C)C(=O)O)c(=O)n3Cc3ccc(Cl)cc3)cc2)s1 [Compound R-153] was tested, and the IC50 was 8 nM. Work on C[C@@H](Cn1c(=O)[nH]/c(=N\c2ccc(Oc3ccc(CO)nc3)cc2)n(Cc2ccc(Cl)cc2)c1=O)C(=O)O [Compound R-155] yielded an IC50 of 10 nM. COC(=O)[C@H](C)[C@H](C)n1c(=O)[nH]/c(=N\c2ccc(Oc3cc(F)nc(F)c3)cc2)n(Cc2ccc(Cl)cc2)c1=O [Compound R-156] gave an IC50 of 35 nM. Work on C[C@@H](C(=O)O)[C@H](C)n1c(=O)[nH]/c(=N\c2ccc(Oc3cc(F)nc(F)c3)cc2)n(Cc2ccc(Cl)cc2)c1=O [Compound R-157] yielded an IC50 of 6 nM. COC(=O)[C@H](C)[C@H](C)n1c(=O)[nH]/c(=N\c2ccc(Oc3cnccn3)c(C)c2)n(Cc2ccc(Cl)cc2)c1=O [Compound R-158] gave an IC50 of 12 nM. Work on COC(=O)[C@H](C)[C@H](C)n1c(=O)[nH]/c(=N\c2ccc(Oc3cnc(Cl)cn3)cc2)n(Cc2ccc(Cl)cc2)c1=O [Compound R-159] yielded an IC50 of 18 nM. Cc1nsc(Oc2ccc(/N=c3\[nH]c(=O)n(C[C@H](C)C(=O)O)c(=O)n3Cc3ccc(Cl)cc3)cc2)n1 [Compound R-160] gave an IC50 of 8 nM. Cc1cc(/N=c2\[nH]c(=O)n([C@@H](C)[C@@H](C)C(=O)O)c(=O)n2Cc2ccc(Cl)cc2)ccc1Oc1cnccn1 [Compound R-161] gave an IC50 of 10 nM. C[C@@H](C(=O)O)[C@H](C)n1c(=O)[nH]/c(=N\c2ccc(Oc3cnc(Cl)cn3)cc2)n(Cc2ccc(Cl)cc2)c1=O [Compound R-162] showed an IC50 of 6 nM. With CC(C)(Cn1c(=O)[nH]/c(=N\c2ccc(Oc3ncns3)cc2)n(Cc2ccc(Cl)cc2)c1=O)C(=O)O [Compound R-163] the IC50 was 14 nM. C[C@@H](Cn1c(=O)[nH]/c(=N\c2ccc(Oc3ncccn3)c(F)c2)n(Cc2ccc(Cl)cc2)c1=O)C(=O)O [Compound R-164] showed an IC50 of 10 nM. In the case of CC(C)(Cn1c(=O)[nH]/c(=N\c2ccc(Oc3ncccn3)c(F)c2)n(Cc2ccc(Cl)cc2)c1=O)C(=O)O [Compound R-165], the IC50 is reported as 14 nM. Compound CCn1c(=O)[nH]/c(=N\c2ccc(Oc3ccc(Cl)nc3C#N)cc2)n(Cc2ccc(Cl)cc2)c1=O [Compound R-166] has an IC50 of 48 nM. COC(=O)[C@H](C)[C@H](C)n1c(=O)[nH]/c(=N\c2ccc(Oc3cnccn3)cc2)n(Cc2ccc(Cl)cc2)c1=O [Compound R-167] gave an IC50 of 11 nM. For C[C@@H](C(=O)O)[C@H](C)n1c(=O)[nH]/c(=N\c2ccc(Oc3cnccn3)cc2)n(Cc2ccc(Cl)cc2)c1=O [Compound R-168], the IC50 was 17 nM. CCn1c(=O)[nH]/c(=N\c2ccc(Oc3ccc(Cl)nc3C(=O)O)cc2)n(Cc2ccc(Cl)cc2)c1=O [Compound R-169] was tested, and the IC50 was 304 nM. O=c1[nH]c(=O)n(Cc2ccc(Cl)cc2)/c(=N/c2ccc(Oc3ccc(F)cn3)cc2)[nH]1 [Compound R-170] showed an IC50 of 193 nM. Compound CCOC(=O)C[C@H](O)Cn1c(=O)[nH]/c(=N\c2ccc(OC(C)C)c(Cl)c2)n(Cc2ccc(Cl)cc2)c1=O [Compound R-171] has an IC50 of 33 nM. In the case of CCOC(=O)C[C@H](O)Cn1c(=O)[nH]/c(=N\c2ccc3oc(CC)c(C)c3c2)n(Cc2ccc(Cl)cc2)c1=O [Compound R-172], the IC50 is reported as 33 nM. CCc1oc2ccc(/N=c3\[nH]c(=O)[nH]c(=O)n3Cc3ccc(Cl)cc3)cc2c1C [Compound R-173] showed an IC50 of 376 nM. In the case of COC(=O)[C@@H](C)Cn1c(=O)[nH]/c(=N\c2ccc(Oc3ccc(C)nn3)c(F)c2)n(Cc2ccc(Cl)cc2)c1=O [Compound R-174], the IC50 is reported as 10 nM. COC(=O)C(C)(C)Cn1c(=O)[nH]/c(=N\c2ccc(Oc3ccc(C)nn3)c(F)c2)n(Cc2ccc(Cl)cc2)c1=O [Compound R-175] gave an IC50 of 19 nM. For CC(C)(Cn1c(=O)[nH]/c(=N\c2ccc(Oc3cnc(C(F)(F)F)cn3)cc2)n(Cc2ccc(Cl)cc2)c1=O)C(=O)O [Compound R-176], the IC50 was 7 nM. In the case of COc1cc(Oc2ccc(/N=c3\[nH]c(=O)n([C@@H](C)[C@@H](C)C(=O)O)c(=O)n3Cc3ccc(Cl)cc3)cc2)cc(F)n1 [Compound R-177], the IC50 is reported as 5 nM. In the case of CCc1oc2ccc(/N=c3\[nH]c(=O)n(C[C@@H](O)CC(=O)O)c(=O)n3Cc3ccc(Cl)cc3)cc2c1C [Compound R-178], the IC50 is reported as 45 nM. With CC(C)Oc1ccc(/N=c2\[nH]c(=O)n(C[C@@H](O)CC(=O)O)c(=O)n2Cc2ccc(Cl)cc2)cc1Cl [Compound R-179] the IC50 was 56 nM. Cc1ccc(Oc2ccc(/N=c3\[nH]c(=O)n(C[C@H](C)C(=O)O)c(=O)n3Cc3ccc(Cl)cc3)cc2F)nn1 [Compound R-180] was tested, and the IC50 was 7 nM. In the case of Cc1ccc(Oc2ccc(/N=c3\[nH]c(=O)n(CC(C)(C)C(=O)O)c(=O)n3Cc3ccc(Cl)cc3)cc2F)nn1 [Compound R-181], the IC50 is reported as 7 nM. With COC(=O)[C@H](C)[C@H](C)n1c(=O)[nH]/c(=N\c2ccc(Oc3ncc(C)s3)cc2)n(Cc2ccc(Cl)cc2)c1=O [Compound R-182] the IC50 was 26 nM. For Cc1cnc(Oc2ccc(/N=c3\[nH]c(=O)n([C@@H](C)[C@@H](C)C(=O)O)c(=O)n3Cc3ccc(Cl)cc3)cc2)s1 [Compound R-183], the IC50 was 7 nM. COC(=O)[C@@H](C)Cn1c(=O)[nH]/c(=N\c2ccc(Oc3cncc(C)c3)cc2)n(Cc2ccc(Cl)cc2)c1=O [Compound R-184] showed an IC50 of 10 nM. For Cc1cncc(Oc2ccc(/N=c3\[nH]c(=O)n(C[C@H](C)C(=O)O)c(=O)n3Cc3ccc(Cl)cc3)cc2)c1 [Compound R-185], the IC50 was 12 nM. COC(=O)[C@H](C)[C@H](C)n1c(=O)[nH]/c(=N\c2ccc(Oc3cncc(F)c3)c(C)c2)n(Cc2ccc(Cl)cc2)c1=O [Compound R-186] was tested, and the IC50 was 26 nM. COC(=O)[C@H](C)[C@H](C)n1c(=O)[nH]/c(=N\c2ccc(Oc3cncc(F)c3)c(F)c2)n(Cc2ccc(Cl)cc2)c1=O [Compound R-187] gave an IC50 of 21 nM. Cc1cc(/N=c2\[nH]c(=O)n([C@@H](C)[C@@H](C)C(=O)O)c(=O)n2Cc2ccc(Cl)cc2)ccc1Oc1cncc(F)c1 [Compound R-188] gave an IC50 of 9 nM. In the case of C[C@@H](C(=O)O)[C@H](C)n1c(=O)[nH]/c(=N\c2ccc(Oc3cncc(F)c3)c(F)c2)n(Cc2ccc(Cl)cc2)c1=O [Compound R-189], the IC50 is reported as 8 nM. COc1ccc(Oc2ccc(/N=c3\[nH]c(=O)n(CC(C)(C)C(=O)O)c(=O)n3Cc3ccc(Cl)cc3)cc2)nn1 [Compound R-190] gave an IC50 of 9 nM. COc1ccc(Oc2ccc(/N=c3\[nH]c(=O)n([C@@H](C)[C@@H](C)C(=O)O)c(=O)n3Cc3ccc(Cl)cc3)cc2)nn1 [Compound R-191] showed an IC50 of 12 nM. In the case of C[C@@H](Cn1c(=O)[nH]/c(=N\c2ccc(Oc3nc4ccccc4s3)cc2)n(Cc2ccc(Cl)cc2)c1=O)C(=O)O [Compound R-192], the IC50 is reported as 4 nM. Work on COC(=O)C(C)(C)Cn1c(=O)[nH]/c(=N\c2ccc(Oc3cncc(C)c3)cc2)n(Cc2ccc(Cl)cc2)c1=O [Compound R-193] yielded an IC50 of 11 nM. Cc1cncc(Oc2ccc(/N=c3\[nH]c(=O)n(CC(C)(C)C(=O)O)c(=O)n3Cc3ccc(Cl)cc3)cc2)c1 [Compound R-194] showed an IC50 of 13 nM. Work on C[C@@H](Cn1c(=O)[nH]/c(=N\c2ccc(Oc3ncns3)cc2)n(Cc2ccc(Cl)cc2)c1=O)C(=O)O [Compound R-195] yielded an IC50 of 9 nM. With C[C@@H](Cn1c(=O)[nH]/c(=N\c2ccc(Oc3ccc(F)nn3)cc2)n(Cc2ccc(Cl)cc2)c1=O)C(=O)O [Compound R-196] the IC50 was 11 nM. C[C@@H](Cn1c(=O)[nH]/c(=N\c2ccc(Oc3ccc(Cl)nn3)cc2)n(Cc2ccc(Cl)cc2)c1=O)C(=O)O [Compound R-197] was tested, and the IC50 was 7 nM. C[C@@H](Cn1c(=O)[nH]/c(=N\c2ccc(Oc3cc(F)ncn3)cc2)n(Cc2ccc(Cl)cc2)c1=O)C(=O)O [Compound R-198] was tested, and the IC50 was 9 nM. For COC(=O)[C@@H](C)Cn1c(=O)[nH]/c(=N\c2ccc(Oc3cncc(OC)c3)cc2)n(Cc2ccc(Cl)cc2)c1=O [Compound R-199], the IC50 was 7 nM. Compound COC(=O)C(C)(C)Cn1c(=O)[nH]/c(=N\c2ccc(Oc3cncc(OC)c3)cc2)n(Cc2ccc(Cl)cc2)c1=O [Compound R-200] has an IC50 of 8 nM. In the case of COc1cncc(Oc2ccc(/N=c3\[nH]c(=O)n(C[C@H](C)C(=O)O)c(=O)n3Cc3ccc(Cl)cc3)cc2)c1 [Compound R-201], the IC50 is reported as 8 nM.
